Reference: the Kinase Knowledgebase extract (Sharma et al. 2016)

Target: EGFR (human), P00533 [WT]
Sequence (P00533 whole entry, looked up): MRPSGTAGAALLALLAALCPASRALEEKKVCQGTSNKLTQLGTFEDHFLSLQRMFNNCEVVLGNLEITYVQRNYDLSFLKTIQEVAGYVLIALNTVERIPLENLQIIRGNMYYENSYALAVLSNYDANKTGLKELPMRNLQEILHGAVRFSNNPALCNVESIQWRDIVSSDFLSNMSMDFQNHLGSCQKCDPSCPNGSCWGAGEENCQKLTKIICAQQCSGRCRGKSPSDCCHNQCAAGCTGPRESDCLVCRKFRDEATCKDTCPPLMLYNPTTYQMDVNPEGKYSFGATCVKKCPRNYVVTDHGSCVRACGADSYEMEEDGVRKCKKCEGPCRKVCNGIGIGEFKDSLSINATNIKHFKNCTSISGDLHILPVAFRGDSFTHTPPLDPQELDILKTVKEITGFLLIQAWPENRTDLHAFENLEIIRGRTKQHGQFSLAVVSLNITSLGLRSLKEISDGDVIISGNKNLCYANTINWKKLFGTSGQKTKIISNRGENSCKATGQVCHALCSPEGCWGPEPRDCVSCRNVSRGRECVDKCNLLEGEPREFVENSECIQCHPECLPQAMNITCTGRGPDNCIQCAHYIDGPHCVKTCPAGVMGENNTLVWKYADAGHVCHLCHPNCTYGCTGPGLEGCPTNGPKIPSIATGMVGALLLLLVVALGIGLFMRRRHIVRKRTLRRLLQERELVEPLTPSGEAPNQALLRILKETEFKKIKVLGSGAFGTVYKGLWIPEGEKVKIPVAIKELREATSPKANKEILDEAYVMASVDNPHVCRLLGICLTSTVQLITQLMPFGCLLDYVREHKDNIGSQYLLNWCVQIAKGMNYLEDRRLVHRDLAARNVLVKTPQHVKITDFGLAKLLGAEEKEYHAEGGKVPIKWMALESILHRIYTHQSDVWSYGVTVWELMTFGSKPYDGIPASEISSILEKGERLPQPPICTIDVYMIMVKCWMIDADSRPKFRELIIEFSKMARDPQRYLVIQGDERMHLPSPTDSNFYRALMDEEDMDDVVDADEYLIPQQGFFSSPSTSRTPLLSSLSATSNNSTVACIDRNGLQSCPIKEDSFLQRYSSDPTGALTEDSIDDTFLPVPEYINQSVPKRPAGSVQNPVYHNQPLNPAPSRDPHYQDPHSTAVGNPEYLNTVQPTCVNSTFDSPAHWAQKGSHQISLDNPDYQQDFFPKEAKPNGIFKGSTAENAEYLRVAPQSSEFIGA

Compound	IC50
C=CC(=O)Nc1cccc(Nc2nccc(Nc3cccc(C)c3)n2)c1	≤ 10 nM
C=CC(=O)Nc1cccc(Nc2nc(Nc3ccc(OCC(O)CO)c(F)c3)ncc2F)c1 (centres undefined)	≤ 10 nM
C=CC(=O)Nc1cccc(Oc2nc(Nc3cccc(OC)c3)ncc2C(N)=O)c1	≤ 10 nM
C=C(C)C(=O)Cc1cccc(Nc2nc(Nc3ccc(OCCOC)c(F)c3)ncc2F)c1	≤ 10 nM
C=CC(=O)Nc1cccc(Oc2nc(Nc3ccc(OC)nc3)ncc2C(C)=O)c1	≤ 10 nM
C=CC(=O)Nc1cccc(Nc2nc(Nc3cccc(OCC(O)CO)c3)ncc2F)c1 (centres undefined)	≤ 10 nM
C=CC(=O)Nc1cccc(Nc2nc(Nc3ccccc3)ncc2C)c1	≤ 10 nM
C=CC(=O)Nc1cccc(Oc2nc(Nc3cccc(N4CCN(CCO)CC4)c3)ncc2F)c1	≤ 10 nM
C=CC(=O)Nc1cccc(Nc2nc(Nc3cccc(OCCN(C)C)c3)ncc2F)c1	≤ 10 nM
C=CC(=O)Nc1cccc(Oc2nc(Nc3cccc(OCCCS(C)(=O)=O)c3)ncc2F)c1	≤ 10 nM
C=CC(=O)Nc1cccc(Oc2nc(Nc3ccccc3)ncc2C)c1	≤ 10 nM
C=CC(=O)Nc1cccc(Nc2nc(Nc3ccc(OCCOC)cc3)ncc2F)c1	≤ 10 nM
C=CC(=O)Nc1cccc(Nc2nc(Nc3ccc(OCC(O)CO)cc3)ncc2F)c1 (centres undefined)	≤ 10 nM
C=CC(=O)Nc1cccc(Nc2ncc(C)c(Nc3ccccc3)n2)c1	≤ 10 nM
Cc1cccc(Nc2nc(Nc3cccc(NC(=O)/C=C/CN(C)C)c3)ncc2F)c1	≤ 10 nM
C=CC(=O)Nc1cccc(Oc2nc(Nc3ccc(OC)nc3)ncc2C(=O)Nc2ccccc2)c1	≤ 10 nM
C=CC(=O)Nc1cccc(Nc2nc(Nc3cccc(S(N)(=O)=O)c3)ncc2F)c1	≤ 10 nM
C=CC(=O)Nc1cccc(Nc2nc(Nc3cccc(S(N)(=O)=O)c3)ncc2C)c1	≤ 10 nM
C=CC(=O)N1CCC[C@@H](Nc2nc(Nc3cccc(Cl)c3)ncc2F)C1	≤ 10 nM

Compound	IC50
C=CC(=O)Nc1cccc(Oc2nc(Nc3ccc(OC)nc3)ncc2C(=O)NC2CC2)c1	≤ 10 nM
C=CC(=O)Nc1cccc(Nc2nc(Nc3ccc(OCCCNC(=O)OC(C)(C)C)cc3)ncc2F)c1	≤ 10 nM
C=CC(=O)Nc1cccc(Nc2ncc(F)c(Nc3cccc(C)c3)n2)c1	≤ 10 nM
C=CC(=O)Nc1cccc(Nc2nc(Nc3ccc4c(cnn4C)c3)ncc2F)c1	≤ 10 nM
C=CC(=O)Nc1cccc(Nc2nc(Nc3cccc(OCC4CCCN(C)C4)c3)ncc2F)c1 (centres undefined)	≤ 10 nM
C=CC(=O)Nc1cccc(Nc2nc(Nc3ccc4c(c3)NCCO4)ncc2F)c1	≤ 10 nM
C=CC(=O)Nc1ccc(C)c(Nc2ncc(C)c(Nc3cccc(C)c3)n2)c1	≤ 10 nM
C=CC(=O)Nc1cccc(Nc2nc(Nc3ccc(N4CCS(=O)(=O)CC4)nc3)ncc2F)c1	≤ 10 nM
C=CC(=O)Nc1cccc(Nc2nc(Nc3ccccc3)ncc2C(F)(F)F)c1	≤ 10 nM
C=CC(=O)Nc1cccc(Nc2nc(Nc3ccc(OC)nc3)ncc2C2CC2)c1	≤ 10 nM
C=CC(=O)Nc1cccc(Oc2nc(Nc3cccc(OC)c3)ncc2C(=O)Nc2ccccc2)c1	≤ 10 nM
C=CC(=O)N1CCOc2ccc(Nc3nc(Nc4ccc(N5CCOCC5)cc4)ncc3C(C)=O)cc21	≤ 10 nM
C=CC(=O)Nc1cccc(Nc2nc(Nc3ccccc3)ncc2C#N)c1	≤ 10 nM
Cc1cccc(Nc2nc(Nc3cccc(NC(=O)/C=C/CN(C)C)c3)ncc2C)c1	≤ 10 nM
C=CC(=O)Nc1cccc(Oc2nc(Nc3cccc(OCC4CCCN(C)C4)c3)ncc2F)c1 (centres undefined)	≤ 10 nM
C=CC(=O)Nc1cccc(Nc2nc(Nc3ccc(OCC4CCN(C)CC4)cc3)ncc2F)c1	≤ 10 nM
C=CC(=O)Nc1cccc(Oc2nc(Nc3cccc(OCC4CCN(C)CC4)c3)ncc2F)c1	≤ 10 nM
C=CC(=O)Nc1cccc(Oc2nc(Nc3cccc(OC)c3)ncc2C(=O)NC2CC2)c1	≤ 10 nM
C=CC(=O)Nc1cccc(Nc2nc(Nc3cccc(OCCCN4CCCC4=O)c3)ncc2F)c1	≤ 10 nM

Compound	IC50
C=CC(=O)Nc1cccc(Oc2nc(Nc3cccc(OCCN4CCCC4=O)c3)ncc2F)c1	≤ 10 nM
COCCN(C)C/C=C/C(=O)Nc1cccc(Nc2ncc(F)c(Nc3cccc(C)c3)n2)c1	≤ 10 nM
C=CC(=O)Nc1cccc(Nc2nc(Nc3ccc(OCCOC)c(F)c3)ncc2C(F)(F)F)c1	≤ 10 nM
Cc1cccc(Nc2nc(Nc3cccc(NC(=O)/C=C/CN4CC[C@H](O)C4)c3)ncc2F)c1	≤ 10 nM
C=CC(=O)Nc1cccc(Nc2nc(Nc3ccc(OC)nc3)ncc2C#N)c1	≤ 10 nM
C=CC(=O)Nc1cccc(Nc2nc(Nc3ccc(OCC4CCN(C)CC4)nc3)ncc2F)c1	≤ 10 nM
C=CC(=O)Nc1cccc(Nc2nc(Nc3ccc(OCCOC)c(F)c3)ncc2C#N)c1	≤ 10 nM
C=CC(=O)Nc1cccc(Nc2nc(Nc3cccc(CO)c3)ncc2F)c1	≤ 10 nM
C=CC(=O)N1CCOc2ccc(Nc3nc(Nc4ccc(OCCOC)cc4)ncc3C(C)=O)cc21	≤ 10 nM
Cc1cccc(Nc2nc(Nc3cccc(NC(=O)/C=C/CN4CC[C@@H](O)C4)c3)ncc2F)c1	≤ 10 nM
C=CC(=O)Nc1cccc(Nc2nc(Nc3ccc4[nH]ncc4c3)ncc2F)c1	≤ 10 nM
C=CC(=O)Nc1cccc(Oc2nc(Nc3ccc(OC)nc3)ncc2C)c1	≤ 10 nM
C=CC(=O)Nc1ccc(Nc2nc(Nc3ccc(OC)nc3)ncc2C(F)(F)F)cc1	≤ 10 nM
C=CC(=O)Nc1cccc(Nc2nc(Nc3ccc(OCCOC)cc3)ncc2C#N)c1	≤ 10 nM
C=CC(=O)Nc1cccc(Nc2nc(Nc3cccc(OCC4CCN(C)CC4)c3)ncc2F)c1	≤ 10 nM
Cc1cnc(Nc2cccc(S(N)(=O)=O)c2)nc1Nc1ccc2c(c1)CCN(C(=O)CCl)C2	≤ 10 nM
C=CC(=O)Nc1cccc(Nc2nc(Nc3ccc4c(c3)CC(=O)N4)ncc2F)c1	≤ 10 nM
C=CC(=O)Nc1cccc(Oc2nc(Nc3ccc(OCCOC)cc3)ncc2C2CC2)c1	≤ 10 nM
C=CC(=O)Nc1cccc(Oc2nc(Nc3cccc(OCCCN4CCCC4=O)c3)ncc2F)c1	≤ 10 nM

Target: EGFR (Human), P00533 [T790M/L858R]
Sequence (P00533 whole entry T790M/L858R, looked up): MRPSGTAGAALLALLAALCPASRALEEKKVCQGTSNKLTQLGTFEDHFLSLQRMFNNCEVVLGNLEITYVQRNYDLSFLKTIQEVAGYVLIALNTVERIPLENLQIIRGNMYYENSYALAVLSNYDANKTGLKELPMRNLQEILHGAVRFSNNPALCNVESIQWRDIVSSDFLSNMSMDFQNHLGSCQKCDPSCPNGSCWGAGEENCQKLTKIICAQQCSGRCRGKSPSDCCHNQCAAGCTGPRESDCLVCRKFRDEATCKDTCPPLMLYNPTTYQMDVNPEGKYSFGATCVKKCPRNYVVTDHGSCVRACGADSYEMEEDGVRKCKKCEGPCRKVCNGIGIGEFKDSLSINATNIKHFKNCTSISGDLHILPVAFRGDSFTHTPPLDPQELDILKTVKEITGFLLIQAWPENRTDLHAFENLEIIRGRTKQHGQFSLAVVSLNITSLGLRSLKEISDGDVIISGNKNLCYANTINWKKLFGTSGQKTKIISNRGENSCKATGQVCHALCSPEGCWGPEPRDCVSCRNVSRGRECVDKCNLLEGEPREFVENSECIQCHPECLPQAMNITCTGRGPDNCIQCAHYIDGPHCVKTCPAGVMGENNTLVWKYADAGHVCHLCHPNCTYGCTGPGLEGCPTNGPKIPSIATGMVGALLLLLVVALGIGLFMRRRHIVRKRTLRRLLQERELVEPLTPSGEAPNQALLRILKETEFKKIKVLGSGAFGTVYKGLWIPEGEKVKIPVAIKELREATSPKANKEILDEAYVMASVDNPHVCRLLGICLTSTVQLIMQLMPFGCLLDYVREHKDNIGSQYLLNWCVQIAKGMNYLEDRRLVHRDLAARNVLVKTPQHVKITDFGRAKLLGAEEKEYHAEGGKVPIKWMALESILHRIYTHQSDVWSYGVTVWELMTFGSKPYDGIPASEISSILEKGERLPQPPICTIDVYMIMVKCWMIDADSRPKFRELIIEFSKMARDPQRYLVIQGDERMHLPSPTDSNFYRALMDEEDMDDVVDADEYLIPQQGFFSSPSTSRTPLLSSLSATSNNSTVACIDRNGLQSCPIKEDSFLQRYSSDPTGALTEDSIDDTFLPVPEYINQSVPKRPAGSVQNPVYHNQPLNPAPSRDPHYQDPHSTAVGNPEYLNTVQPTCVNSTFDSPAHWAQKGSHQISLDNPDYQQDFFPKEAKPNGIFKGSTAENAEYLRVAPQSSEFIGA

Compound	IC50
Cc1cnc(Nc2ccccc2)nc1Nc1cccc(NC(=O)/C=C/CN(C)C)c1	≤ 10 nM
C=CC(=O)Nc1cccc(Nc2nccc(Nc3cccc(C)c3)n2)c1	≤ 10 nM
C=CC(=O)Nc1ccc(C)c(Nc2nccc(-c3cccnc3)n2)c1	≤ 10 nM
C=CC(=O)Nc1cccc(Nc2nc(Nc3ccccc3)ncc2C)c1	≤ 10 nM
C=CC(=O)Nc1cccc(Nc2ncc(C)c(Nc3ccccc3)n2)c1	≤ 10 nM
Cc1cccc(Nc2nc(Nc3cccc(NC(=O)/C=C/CN(C)C)c3)ncc2F)c1	≤ 10 nM
C=CC(=O)Nc1cccc(Nc2ncc(F)c(Nc3cccc(C)c3)n2)c1	≤ 10 nM
C=CC(=O)Nc1cccc(Nc2nc(Nc3ccc(OCCOC)c(F)c3)ncc2F)c1	≤ 10 nM
C#CCOc1cccc(Nc2ncc(C)c(Nc3cccc(NC(=O)C=C)c3)n2)c1	≤ 10 nM
C=CC(=O)Nc1ccc(C)c(Nc2ncc(C)c(Nc3cccc(C)c3)n2)c1	≤ 10 nM
Cc1cnc(Nc2cccc(S(N)(=O)=O)c2)nc1Nc1ccc2c(c1)CCN(C(=O)CCl)C2	≤ 10 nM
C=CC(=O)Nc1cccc(Nc2ncc(C)c(Nc3cccc(C)c3)n2)c1	≤ 10 nM

Target: EGFR (human), P00533 [T790M]
Sequence (P00533 whole entry T790M, looked up): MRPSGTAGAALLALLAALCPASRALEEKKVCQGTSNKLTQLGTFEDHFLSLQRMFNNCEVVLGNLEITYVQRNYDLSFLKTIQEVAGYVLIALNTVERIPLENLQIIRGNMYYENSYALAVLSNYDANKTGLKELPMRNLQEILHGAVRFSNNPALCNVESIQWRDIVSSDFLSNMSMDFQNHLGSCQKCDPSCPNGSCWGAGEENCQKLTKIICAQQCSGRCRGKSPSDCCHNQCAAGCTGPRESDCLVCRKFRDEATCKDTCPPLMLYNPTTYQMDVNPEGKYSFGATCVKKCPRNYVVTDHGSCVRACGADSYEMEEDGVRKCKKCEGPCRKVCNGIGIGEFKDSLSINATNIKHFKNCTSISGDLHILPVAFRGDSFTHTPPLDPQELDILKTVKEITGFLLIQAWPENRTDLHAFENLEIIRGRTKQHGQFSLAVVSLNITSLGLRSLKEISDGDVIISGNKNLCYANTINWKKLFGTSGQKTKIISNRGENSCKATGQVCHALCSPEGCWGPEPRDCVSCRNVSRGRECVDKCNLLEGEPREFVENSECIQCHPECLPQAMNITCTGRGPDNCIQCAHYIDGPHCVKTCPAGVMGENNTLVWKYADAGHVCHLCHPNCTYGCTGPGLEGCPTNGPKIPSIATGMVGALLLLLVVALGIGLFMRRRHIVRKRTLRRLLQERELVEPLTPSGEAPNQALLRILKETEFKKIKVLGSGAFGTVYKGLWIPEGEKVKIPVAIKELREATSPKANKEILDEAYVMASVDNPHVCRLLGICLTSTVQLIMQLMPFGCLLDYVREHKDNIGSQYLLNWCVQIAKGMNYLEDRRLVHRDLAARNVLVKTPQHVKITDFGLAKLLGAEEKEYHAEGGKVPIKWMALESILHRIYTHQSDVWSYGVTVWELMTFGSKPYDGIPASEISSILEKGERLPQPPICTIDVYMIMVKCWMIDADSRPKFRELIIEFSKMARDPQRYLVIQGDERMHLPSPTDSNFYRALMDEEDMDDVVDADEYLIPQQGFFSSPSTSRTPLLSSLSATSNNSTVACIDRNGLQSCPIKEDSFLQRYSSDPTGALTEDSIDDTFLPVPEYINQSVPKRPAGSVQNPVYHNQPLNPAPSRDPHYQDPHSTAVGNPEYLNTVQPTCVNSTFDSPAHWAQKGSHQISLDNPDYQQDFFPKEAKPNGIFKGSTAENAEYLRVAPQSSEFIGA

Compound	IC50
Cc1cccc(Nc2nc(Nc3cccc(NC(=O)/C=C/CN(C)C)c3)ncc2F)c1	≤ 10 nM
C=CC(=O)Nc1cccc(Nc2ncc(F)c(Nc3cccc(C)c3)n2)c1	≤ 10 nM
C=CC(=O)Nc1cccc(Nc2nc(Nc3ccc(OCCOC)c(F)c3)ncc2F)c1	≤ 10 nM
C=CC(=O)Nc1cccc(Nc2ncc(C)c(Nc3cccc(C)c3)n2)c1	≤ 10 nM

Target: EGFR (human) (UniProt P00533)
Sequence (P00533 whole entry, looked up): as the sequence (P00533 whole entry, looked up) above

Compound	IC50
C=CC(=O)Nc1ccc(C)c(Nc2nccc(-c3cccnc3)n2)c1	2.23 nM
